Source: patent US20260092076A1, “NOVEL COMPOUNDS” (Hoffmann-La Roche Inc., priority 2023, published 2026)
Structures can show the parent of a compound that is named as a salt.

Key:
[1] = molecular target: T1, NLRP3 (Homo sapiens, UniProt Q96P20); test: THP-1 cells pyroptosis assay; type: cell-based; parameters: Seed THP-1 cells (25,000 cells/well) containing 1.0 μg/ml LPS in 40 μl of RPMI medium; host or cells: THP-1 cells, LPS-primed, nigericin-stimulated; details: THP-1 cells with 1.0 μg/ml LPS, compound 3 hours, nigericin 5 μM 1 hr, resazurin readout
T1 sequence (Q96P20 whole entry): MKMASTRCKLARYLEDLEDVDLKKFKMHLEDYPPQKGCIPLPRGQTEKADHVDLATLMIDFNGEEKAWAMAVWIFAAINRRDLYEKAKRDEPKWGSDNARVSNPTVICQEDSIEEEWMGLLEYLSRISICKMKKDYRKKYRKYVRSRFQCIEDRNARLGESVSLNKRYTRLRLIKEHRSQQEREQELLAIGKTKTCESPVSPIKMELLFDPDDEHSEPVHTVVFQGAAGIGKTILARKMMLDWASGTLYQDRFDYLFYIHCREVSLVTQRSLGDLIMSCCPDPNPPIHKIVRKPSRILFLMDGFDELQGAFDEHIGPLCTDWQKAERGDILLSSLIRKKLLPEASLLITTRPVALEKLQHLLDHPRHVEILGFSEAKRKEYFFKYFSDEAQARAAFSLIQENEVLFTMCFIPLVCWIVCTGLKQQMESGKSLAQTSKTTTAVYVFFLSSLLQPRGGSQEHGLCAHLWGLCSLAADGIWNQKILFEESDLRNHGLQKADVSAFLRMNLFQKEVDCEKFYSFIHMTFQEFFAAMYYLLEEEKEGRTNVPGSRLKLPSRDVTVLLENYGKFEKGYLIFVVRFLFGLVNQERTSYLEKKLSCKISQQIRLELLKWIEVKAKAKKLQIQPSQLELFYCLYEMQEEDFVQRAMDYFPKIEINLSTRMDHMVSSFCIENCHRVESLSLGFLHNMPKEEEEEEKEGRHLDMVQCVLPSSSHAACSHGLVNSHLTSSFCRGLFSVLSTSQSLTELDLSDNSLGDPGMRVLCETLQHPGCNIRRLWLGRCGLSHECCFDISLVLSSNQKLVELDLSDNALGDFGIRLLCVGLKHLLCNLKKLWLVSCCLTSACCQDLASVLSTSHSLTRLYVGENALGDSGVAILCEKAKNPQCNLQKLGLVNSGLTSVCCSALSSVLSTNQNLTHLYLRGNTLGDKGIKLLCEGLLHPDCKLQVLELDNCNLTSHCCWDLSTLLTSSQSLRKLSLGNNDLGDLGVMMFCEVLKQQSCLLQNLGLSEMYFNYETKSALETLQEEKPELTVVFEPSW
Method: THP-1 cells (ATCC #TIB-202) were grown in RPMI containing L-glutamine (Gibco #11835) supplemented with 1 mM sodium pyruvate (Sigma #S8636) and penicillin (100 units/ml)/streptomycin (0.1 mg/ml) (Sigma #P4333) in 10% Fetal Bovine Serum (FBS) (Sigma #F0804). The cells were routinely passaged and grown to confluency (˜10^6 cells/ml). On the day of the experiment, THP-1 cells were harvested and resuspended into RPMI medium (without FBS). The cells were then counted and viability (>90%) checked by Trypan blue (Sigma #T8154). Appropriate dilutions were made to give a concentration of 625,000 cells/ml. To this diluted cell solution was added LPS (Sigma #L4524) to give a 1 μg/ml Final Assay Concentration (FAC). 40 μl of the final preparation was aliquoted into each well of a 96-well plate. The plate thus prepared was used for compound screening.
The following method step-by-step assay was followed for compound screening. • Seed THP-1 cells (25,000 cells/well) containing 1.0 μg/ml LPS in 40 μl of RPMI medium (without FBS) in 96-well, black walled, clear bottom cell culture plates coated with poly-D-lysine (VWR #734-0317) • Add 5 μl compound (8 points half-log dilution, with 10 μM top dose) or vehicle (DMSO 0.1% FAC) to the appropriate wells • Incubate for 3 hours at 37° C., 5% CO2 • Add 5 μl nigericin (Sigma #N7143) (FAC 5 μM) to all wells • Incubate for 1 hr at 37° C., 5% CO2 • At the end of the incubation period, spin plates at 300×g for 3 mins and remove supernatant • Then add 50 μl of resazurin (Sigma #R7017) (FAC 100 μM resazurin in RPMI medium without FBS) and incubate plates for a further 1-2 hours at 37° C. and 5% CO2 • Plates were read in an Envision reader at Ex 560 nm and Em 590 nm • IC50 data is fitted to a non-linear regression equation (log inhibitor vs response-variable slope 4-parameters)

[2] = molecular target: T1, NLRP3; test: Human whole blood IL-1β release assay; type: cell-based; details: human whole blood with 1 μg/ml LPS, compound 3 hours, nigericin 10 μM 1 hr, IL-1β by AlphaLisa
Method: For systemic delivery, the ability to inhibit NLRP3 when the compounds are present within the bloodstream is of great importance. For this reason, the NLRP3 inhibitory activity of a number of compounds in human whole blood was investigated in accordance with the following protocol. • Human whole blood in Li-heparin tubes was obtained from healthy donors from a volunteer donor panel. • Plate out 80 μl of whole blood containing 1 μg/ml of LPS in 96-well, clear bottom cell culture plate (Corning #3585) • Add 10 μl compound (8 points half-log dilution with 10 μM top dose) or vehicle (DMSO 0.1% FAC) to the appropriate wells • Incubate for 3 hours at 37° C., 5% CO2 • Add 10 μl nigericin (Sigma #N7143) (10 μM FAC) to all wells • Incubate for 1 hr at 37° C., 5% CO2 • At the end of the incubation period, spin plates at 300×g for 5 mins to pellet cells and remove 20 μl of supernatant and add to 96-well v-bottom plates for IL-1β analysis (note: these plates containing the supernatants can be stored at −80° C. to be analysed at a later date) • IL-1β was measured according to the manufacturer protocol (Perkin Elmer-AlphaLisa IL-1 Kit AL220F-5000) • IC50 data is fitted to a non-linear regression equation (log inhibitor vs response-variable slope 4-parameters)

| Compound | IC50 [1] [nM] | IC50 [2] [nM] |
| --- | --- | --- |
| Cc1cc(C(F)(F)F)cc(O)c1-c1ccc2oc(N3Cc4cncnc4C3)nc2n1 [Example 18, 2-[2-(5,7-Dihydropyrrolo[3,4-d]pyrimidin-6-yl)oxazolo[4,5-b]pyridin-5-yl]-3-methyl-5-(trifluoromethyl)phenol] | 6.9 | 2350 |
| Cc1cc(Cl)cc(O)c1-c1ccc2oc(N3Cc4c[nH]nc4C3)nc2n1 [Example 14, 5-Chloro-2-[2-(4,6-dihydro-2H-pyrrolo[3,4-c]pyrazol-5-yl)oxazolo[4,5-b]pyridin-5-yl]-3-methyl-phenol] | 56.2 | 305 |
| Cc1cc(Cl)cc(O)c1-c1ccc2oc(N3Cc4cncnc4C3)nc2n1 [Example 13, 5-Chloro-2-[2-(5,7-dihydropyrrolo[3,4-d]pyrimidin-6-yl)oxazolo[4,5-b]pyridin-5-yl]-3-methyl-phenol formic acid salt] | 15 | 304 |

Other lines, results leading:

| IC50 [1] [nM] | IC50 [2] [nM] | Compound |
| --- | --- | --- |
| 9.5 | 487 | Cc1cc(Cl)cc(O)c1-c1ccc2oc(N3Cc4ccncc4C3)nc2n1 [Example 7, 5-chloro-2-[2-(1,3-dihydropyrrolo[3,4-c]pyridin-2-yl)oxazolo[4,5-b]pyridin-5-yl]-3-methyl-phenol] |
| 24.8 | 326 | OCc1cc(Cl)cc(O)c1-c1cnc2oc(N3Cc4ccncc4C3)nc2n1 [Example 30, 5-Chloro-2-[2-(1,3-dihydropyrrolo[3,4-c]pyridin-2-yl)oxazolo[4,5-b]pyrazin-5-yl]-3-(hydroxymethyl)phenol] |
